Literature values as cited in US5177084A, “Therapeutic use of substituted benzenes, formulations thereof and novel substituted benzenes” (Merck Sharp & Dohme Ltd., priority 1989, dated 1993).

Settings: literature report, test not specified

Row | Compound | pharmacological activity
1 | COc1ccc(C2(O)CN3CCC2CC3)cc1.O=C(O)C(=O)O (centres unmarked) [Example 2, 3-Hydroxy-3-(4-Methoxyphenyl)quinuclidine Hydrogen Oxalate] | did not display pharmacological activity
2 | O=C(O)C(=O)O.OC1(c2ccc(Cl)cc2)CN2CCC1CC2 (centres unmarked) [Example 4, 3-(4-Chlorophenyl)-3-hydroxy quinuclidine Hydrogen Oxalate] | did not display pharmacological activity
